The record followed here is patent US9034899B2, “Aryl, heteroaryl, and heterocycle substituted tetrahydroisoquinolines and use thereof” (Albany Molecular Research, Inc., priority 2009, dated 2015).

In one experiment the target is hSERT (Homo sapiens (Human), UniProt P31645). Put plainly: SERT radioligand binding assay ([125I]RTI-55, HEK-293 membranes). As to conditions: (+)-enantiomers; read-out: SERT IC50. As for the experimental part:
(§1) The medium was removed from the flasks and the cells rinsed with HBSS without Ca and without Mg. The cells were then incubated for 5-10 minutes in 10 mM Tris-Cl, pH 7.5, 5 mM EDTA before the cells were lifted with a combination of pipetting and scraping, as needed. The cell suspension was collected into centrifuge bottles and homogenized for 30 seconds with a Polytron homogenizer. The suspension was centrifuged for 30 minutes at 32,000×g, 4° C. The supernatant was decanted and the pellet resuspended and homogenized in 50 mM Tris-Cl, pH 7.5, 1 mM EDTA for 10 seconds. The suspension was then centrifuged again for 30 minutes at 32,000×g, 4° C. The supernatant was decanted and the pellet resuspended in 50 mM Tris-Cl, pH 7.5, 1 mM EDTA and briefly homogenized. A Bradford assay (Bio-rad) was performed and the membrane preparation diluted to 2 mg/ml with 50 mM Tris-Cl, pH 7.5, 1 mM EDTA. Aliquots were prepared, and then frozen and stored at −80° C.
Compounds were dissolved in 100% DMSO at a concentration 100 times the desired highest assay concentration, serially diluted 1:3 in 100% DMSO, and 0.4 μl/well of each solution was dispensed to a Nunc polypropylene, round bottom, 384-well plate. […] The contents of the assay plate were then transferred to a Millipore MultiscreenHTS GF/B filter plate which was pretreated with 0.5% PEI for at least one hour. The plate was vacuum filtered and washed with 7 washes of 100 μl/well 50 mM Tris-Cl, pH 7.5, 120 mM NaCl, 5 mM KCl chilled to 4° C. The filtration and washing were completed in less than 90 seconds. The plates were air-dried overnight, 12 μl/well of MicroScint scintillation fluid added, and the plates counted in a Trilux.
Each plate was run in triplicate, and the concentration response curve thus generated was fit using the four-parameter dose response equation, Y=Bottom+(Top-Bottom)/(1+10^((LogIC50−X)*HillSlope)) in order to determine the IC50 value for each compound. The radioligand concentration chosen for each assay corresponds to the Kd concentration determined through saturation binding analysis for each assay.

The next experiment addresses hDAT (Homo sapiens (Human), UniProt Q01959). Description: DAT radioligand binding assay ([125I]RTI-55, HEK-293 membranes). As to conditions: (+)-enantiomers; read-out: DAT IC50. As for the experimental part:
as §1, with “Recombinant HEK-293 cells expressing either the hSERT, hDAT, or hNET proteins were harvested from T-175 flasks as follows. The medium” for “The medium”
Compounds were dissolved in 100% DMSO at a concentration 100 times the desired highest assay concentration, serially diluted 1:3 in 100% DMSO, and 0.4 μl/well of each solution was dispensed to a Nunc polypropylene, round bottom, 384-well plate. 100% inhibition is defined with 0.4 μl/well of 1 mM GBR-12935 dissolved in DMSO. 20 ul/well of a 2× membrane preparation (12.5 μg/ml in 30 mM sodium phosphate buffer, pH 7.9 at 4° C.) and 20 μl/well of a 2× radioligand solution ([…] [^125I]RTI-55 in 30 mM sodium phosphate buffer, pH 7.9 at 4° C.) were added to the well and the reaction incubated for 1 hour at room temperature. The contents of the assay plate were then transferred to a Millipore MultiscreenHTS GF/B filter plate which was pretreated with 0.5% PEI for at least one hour. The plate was vacuum-filtered and washed with 7 washes of 100 μl/well 50 mM Tris-Cl, pH 7.5, 120 mM NaCl, 5 mM KCl chilled to 4° C. The filtration and washing were completed in less than 90 seconds. The plates were air-dried overnight, 12 μl/well of MicroScint scintillation fluid added, and the plates counted in a Trilux.
The raw data was normalized to percent inhibition using control wells defining 0% (DMSO only) and 100% (selective inhibitor) inhibition which were run on each plate. Each plate was run in triplicate, and the concentration response curve thus generated was fit using the four-parameter dose response equation, Y=Bottom+(Top-Bottom)/(1+10^((LogIC50−X)*HillSlope)) in order to determine the IC50 value for each compound. The radioligand concentration chosen for each assay corresponds to the Kd concentration determined through saturation binding analysis for each assay.

hSERT, sequence (P31645 whole entry): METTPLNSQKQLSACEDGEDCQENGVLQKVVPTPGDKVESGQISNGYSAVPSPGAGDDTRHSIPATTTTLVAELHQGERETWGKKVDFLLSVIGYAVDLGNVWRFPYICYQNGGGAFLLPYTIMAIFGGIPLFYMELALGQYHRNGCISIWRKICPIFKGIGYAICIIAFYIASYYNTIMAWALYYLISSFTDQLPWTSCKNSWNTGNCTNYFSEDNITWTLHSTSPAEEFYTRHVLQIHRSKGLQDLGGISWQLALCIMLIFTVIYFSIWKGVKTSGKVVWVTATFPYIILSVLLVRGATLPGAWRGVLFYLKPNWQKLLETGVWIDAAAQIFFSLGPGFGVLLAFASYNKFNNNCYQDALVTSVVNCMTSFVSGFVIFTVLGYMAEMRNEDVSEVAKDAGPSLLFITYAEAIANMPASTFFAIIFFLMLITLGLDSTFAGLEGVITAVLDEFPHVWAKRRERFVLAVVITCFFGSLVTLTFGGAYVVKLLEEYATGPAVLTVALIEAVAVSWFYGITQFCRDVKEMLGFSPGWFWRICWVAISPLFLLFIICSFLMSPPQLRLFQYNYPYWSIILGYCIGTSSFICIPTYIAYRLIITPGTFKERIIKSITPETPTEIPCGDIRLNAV
hDAT, sequence (Q01959 whole entry): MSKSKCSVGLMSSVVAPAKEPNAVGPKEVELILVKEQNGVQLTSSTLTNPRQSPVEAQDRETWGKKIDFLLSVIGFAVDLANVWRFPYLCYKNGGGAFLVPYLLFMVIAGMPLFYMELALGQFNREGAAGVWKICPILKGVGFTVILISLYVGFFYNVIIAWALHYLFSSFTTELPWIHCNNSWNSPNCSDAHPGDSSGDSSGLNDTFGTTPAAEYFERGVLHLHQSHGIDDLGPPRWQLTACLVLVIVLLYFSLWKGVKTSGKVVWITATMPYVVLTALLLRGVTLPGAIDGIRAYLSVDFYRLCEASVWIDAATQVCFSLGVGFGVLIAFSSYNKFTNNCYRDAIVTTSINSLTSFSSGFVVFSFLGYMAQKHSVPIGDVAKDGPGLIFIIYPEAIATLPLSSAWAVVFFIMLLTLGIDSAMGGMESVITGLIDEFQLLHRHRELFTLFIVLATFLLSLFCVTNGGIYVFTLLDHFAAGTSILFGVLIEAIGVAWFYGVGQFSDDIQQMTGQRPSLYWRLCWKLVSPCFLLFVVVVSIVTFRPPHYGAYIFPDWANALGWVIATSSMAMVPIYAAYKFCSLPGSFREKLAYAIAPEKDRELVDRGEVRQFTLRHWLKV

Turning to `CC1(C)NCC(c2ccc(Cl)c(Cl)c2)c2ccc(-c3cccnn3)cc21` (single isomer, unassigned) [Example 9, 4-(3,4-dichlorophenyl)-1,1-dimethyl-7-(pyridazin-3-yl)-1,2,3,4-tetrahydroisoquinoline], the IC50 (in general, the concentration that inhibits the measured activity by half) at hSERT was found to be 4.8 nM; at hDAT it was 1.8 nM.
Take `FC(F)Oc1ccc(-c2ccc3c(c2)CNCC3c2ccc(Cl)c(Cl)c2)nn1` (centres unmarked) [Example 12, 4-(3,4-dichlorophenyl)-7-(6-(difluoromethoxy)pyridazin-3-yl)-1,2,3,4-tetrahydroisoquinoline]: the IC50 on hSERT came to 3.6 nM; on hDAT, 50.2 nM.
Turning to `CC1(C)NCC(c2ccc(Cl)c(Cl)c2)c2ccc(-c3ccc(N)nn3)cc21` (centres unmarked) [Example 13, 4-(3,4-dichlorophenyl)-7-(6-aminopyridazin-3-yl)-1,1-dimethyl-1,2,3,4-tetrahydroisoquinoline], the IC50 was determined as 2.3 nM on hSERT and 2.4 nM on hDAT.
Take `Cc1noc(C)c1-c1ccc2c(c1)CNCC2c1ccc(Cl)c(Cl)c1` (centres unmarked) [Example 25, 4-(4-(3,4-dichlorophenyl)-1,2,3,4-tetrahydroisoquinolin-7-yl)-3,5-dimethylisoxazole]: the IC50 was 4.9 nM at hSERT and 47.3 nM at hDAT.
With `Clc1ccc(C2CNCc3cc(-c4cccnn4)ccc32)cc1Cl` (centres unmarked) [Example 33, 4-(3,4-dichlorophenyl)-7-(pyridazin-3-yl)-1,2,3,4-tetrahydroisoquinoline], the values for the IC50 on hSERT and on hDAT were 6.2 nM and 15.4 nM, respectively.
For `Nc1ccc(-c2ccc3c(c2)CNCC3c2ccc(Cl)c(Cl)c2)nn1` (centres unmarked) [Example 34, 6-(4-(3,4-dichlorophenyl)-1,2,3,4-tetrahydroisoquinolin-7-yl)pyridazin-3-amine], in that order: 1.8 nM and 7.1 nM.
Consider `CC1(C)NCC(c2ccc(Cl)c(Cl)c2)c2ccc(-c3ccc4ncnn4c3)cc21` (centres unmarked) [Example 40, 4-(3,4-dichlorophenyl)-7-([1,2,4]triazolo[1,5-a]pyridin-6-yl)-1,1-dimethyl-1,2,3,4-tetrahydroisoquinoline], for which the values for the IC50 at hSERT and on hDAT were 4.2 nM and 2.1 nM, respectively.
